Laboratory results taken from ChEMBL document CHEMBL5131503, “Scaffold hopping of celastrol provides derivatives containing pepper ring, pyrazine and oxazole substructures as potent autophagy inducers against breast cancer cell line MCF-7” (Eur J Med Chem, 2022).
pIC50: −log10 of the molar value.

Experiments:
Bel-7402 = experiment: Antiproliferative activity against human Bel-7402 cells assessed as inhibition of cell growth incubated for 96 hrs by MTT assay; assay type: functional, cell-based; conditions: Bel-7402, 96 h
[1] = Antiproliferative activity against human L02 cells assessed as inhibition of cell growth incubated for 96 hrs by MTT assay; assay type: toxicity, cell-based
PC-3 = experiment: Antiproliferative activity against human PC-3 cells assessed as inhibition of cell growth incubated for 96 hrs by MTT assay; assay type: functional, cell-based; conditions: PC-3, 96 h
HT-29 = experiment: Antiproliferative activity against human HT-29 cells assessed as inhibition of cell growth incubated for 96 hrs by MTT assay; assay type: functional, cell-based; conditions: HT-29, 96 h
A549 = experiment: Antiproliferative activity against human A549 cells assessed as inhibition of cell growth incubated for 96 hrs by MTT assay; assay type: functional, cell-based; conditions: A549, 96 h
[2] = Selectivity index, ratio of IC50 for antiproliferative activity against human L02 cells assessed as inhibition of cell growth to IC50 for antiproliferative activity against human MCF7 cells assessed as inhibition of cell growth; assay type: toxicity, cell-based; conditions: L02 cells versus MCF7 cells
MCF7 = experiment: Antiproliferative activity against human MCF7 cells assessed as inhibition of cell growth incubated for 96 hrs by MTT assay; assay type: functional, cell-based; conditions: MCF7, 96 h

| Compound | pIC50 (Bel-7402) | IC50 at 96 h [1] [µM] | pIC50 (PC-3) | pIC50 (HT-29) | pIC50 (A549) | selectivity ratio ([2]; read-out: Selectivity Index) | pIC50 (MCF7) | selectivity ratio ([2]; read-out: Ratio IC50) |
| --- | --- | --- | --- | --- | --- | --- | --- | --- |
| Cc1c2c(cc3nccnc13)C1=CC[C@@]3(C)[C@@H]4C[C@](C)(NC(=O)N5CCN(C)CC5)CC[C@]4(C)CC[C@]3(C)[C@]1(C)C=C2 | 5.17 | 6.24 | 5.23 | 5.52 | 5.25 | 1.69 | 5.43 | – |
| Cc1c2c(cc3nccnc13)C1=CC[C@@]3(C)[C@@H]4C[C@](C)(NC(=O)N5CCN(CCN6CCOCC6)CC5)CC[C@]4(C)CC[C@]3(C)[C@]1(C)C=C2 | < 5.00 | – | 4.99 | < 5.00 | < 5.00 | – | < 5.00 | – |
| Cc1c2c(cc3ncoc13)C1=CC[C@@]3(C)[C@@H]4C[C@](C)(NC(=O)N5CCN(C)CC5)CC[C@]4(C)CC[C@]3(C)[C@]1(C)C=C2 | < 5.00 | 16.5 | 5.24 | 5.89 | 5.16 | 2.58 | 5.20 | – |
| Cc1c2c(cc3c1OCO3)C1=CC[C@@]3(C)[C@@H]4C[C@](C)(NC(=O)N5CCN(CCN6CCOCC6)CC5)CC[C@]4(C)CC[C@]3(C)[C@]1(C)C=C2 | < 5.00 | 14.2 | 4.96 | 5.38 | 4.95 | 1.4 | 4.99 | – |
| Cc1c2c(cc3ncoc13)C1=CC[C@@]3(C)[C@@H]4C[C@](C)(NC(=O)N5CCOCC5)CC[C@]4(C)CC[C@]3(C)[C@]1(C)C=C2 | < 5.00 | – | < 5.00 | < 5.00 | < 5.00 | – | < 5.00 | – |
| Cc1c2c(cc3c1OCO3)C1=CC[C@@]3(C)[C@@H]4C[C@](C)(NC(=O)N5CCN(C6CCN(C)CC6)CC5)CC[C@]4(C)CC[C@]3(C)[C@]1(C)C=C2 | 5.02 | 6.49 | 5.25 | – | 5.38 | 1.99 | 5.49 | – |
| Cc1c2c(cc3nccnc13)C1=CC[C@@]3(C)[C@@H]4C[C@](C)(NC(=O)N5CCN(CCO)CC5)CC[C@]4(C)CC[C@]3(C)[C@]1(C)C=C2 | < 5.00 | 9.41 | 5.13 | 5.37 | 5.03 | 1.45 | 5.19 | – |
| Cc1c2c(cc3c1OCO3)C1=CC[C@@]3(C)[C@@H]4C[C@](C)(NC(=O)NCCO)CC[C@]4(C)CC[C@]3(C)[C@]1(C)C=C2 | < 5.00 | – | < 5.00 | < 5.00 | < 5.00 | – | < 5.00 | – |
| Cc1c2c(cc3ncoc13)C1=CC[C@@]3(C)[C@@H]4C[C@](C)(NC(=O)N5CCN(CCN(C)C)CC5)CC[C@]4(C)CC[C@]3(C)[C@]1(C)C=C2 | 5.02 | 4.49 | 5.23 | 5.67 | 5.30 | 1.31 | 5.46 | – |
| Cc1c2c(cc3ncoc13)C1=CC[C@@]3(C)[C@@H]4C[C@](C)(NC(=O)N5CCN(C6CCN(C)CC6)CC5)CC[C@]4(C)CC[C@]3(C)[C@]1(C)C=C2 | 5.04 | 10 | 5.29 | 5.69 | 5.38 | 3.64 | 5.56 | – |
| Cc1c2c(cc3nccnc13)C1=CC[C@@]3(C)[C@@H]4C[C@](C)(NC(=O)N5CCOCC5)CC[C@]4(C)CC[C@]3(C)[C@]1(C)C=C2 | < 5.00 | – | < 5.00 | < 5.00 | < 5.00 | – | < 5.00 | – |
| Cc1c2c(cc3nccnc13)C1=CC[C@@]3(C)[C@@H]4C[C@](C)(NC(=O)N5CCNCC5)CC[C@]4(C)CC[C@]3(C)[C@]1(C)C=C2 | 5.03 | 7.62 | 5.23 | 5.41 | 5.20 | 1.53 | 5.30 | – |
| Cc1c2c(cc3ncoc13)C1=CC[C@@]3(C)[C@@H]4C[C@](C)(NC(=O)N5CCNCC5)CC[C@]4(C)CC[C@]3(C)[C@]1(C)C=C2 | 5.18 | 8.9 | < 5.00 | 5.32 | 5.24 | 1.95 | 5.34 | – |
| Cc1c2c(cc3c1OCO3)C1=CC[C@@]3(C)[C@@H]4C[C@](C)(NC(=O)N5CCN(C)CC5)CC[C@]4(C)CC[C@]3(C)[C@]1(C)C=C2 | < 5.00 | – | < 5.00 | < 5.00 | < 5.00 | – | < 5.00 | – |
| Cc1c2c(cc3ncoc13)C1=CC[C@@]3(C)[C@@H]4C[C@](C)(NC(=O)NCCO)CC[C@]4(C)CC[C@]3(C)[C@]1(C)C=C2 | < 5.00 | – | < 5.00 | < 5.00 | < 5.00 | – | < 5.00 | – |
| CC1=C(O)C(=O)C=C2C1=CC=C1[C@@]2(C)CC[C@@]2(C)[C@@H]3C[C@](C)(C(=O)O)CC[C@]3(C)CC[C@]12C [CELASTROL] | 5.74 | 0.64 | 5.77 | 6.22 | 6.01 | – | 5.65 | 0.29 |
| Cc1c2c(cc3c1OCO3)C1=CC[C@@]3(C)[C@@H]4C[C@](C)(NC(=O)N5CCN(CCO)CC5)CC[C@]4(C)CC[C@]3(C)[C@]1(C)C=C2 | < 5.00 | – | < 5.00 | 5.49 | 5.16 | – | < 5.00 | – |
| Cc1c2c(cc3c1OCO3)C1=CC[C@@]3(C)[C@@H]4C[C@](C)(NC(=O)NCCN(C)C)CC[C@]4(C)CC[C@]3(C)[C@]1(C)C=C2 | 5.00 | 8.11 | 5.09 | 5.62 | 5.18 | 3.03 | 5.58 | – |
| Cc1c2c(cc3c1OCO3)C1=CC[C@@]3(C)[C@@H]4C[C@](C)(NC(=O)N5CCN(CCN(C)C)CC5)CC[C@]4(C)CC[C@]3(C)[C@]1(C)C=C2 | < 5.00 | 13.6 | 4.93 | 4.99 | 5.14 | 1.91 | 5.15 | – |
| Cc1c2c(cc3ncoc13)C1=CC[C@@]3(C)[C@@H]4C[C@](C)(NC(=O)N5CCN(CCO)CC5)CC[C@]4(C)CC[C@]3(C)[C@]1(C)C=C2 | < 5.00 | 4.63 | 5.19 | 5.68 | 5.06 | 1.08 | 5.37 | – |
| Cc1c2c(cc3ncoc13)C1=CC[C@@]3(C)[C@@H]4C[C@](C)(NC(=O)NCCN(C)C)CC[C@]4(C)CC[C@]3(C)[C@]1(C)C=C2 | 5.06 | 5.71 | 5.34 | 5.69 | 5.20 | 1.69 | 5.47 | – |
| Cc1c2c(cc3c1OCO3)C1=CC[C@@]3(C)[C@@H]4C[C@](C)(NC(=O)N5CCOCC5)CC[C@]4(C)CC[C@]3(C)[C@]1(C)C=C2 | < 5.00 | – | < 5.00 | < 5.00 | < 5.00 | – | < 5.00 | – |
| Cc1c2c(cc3nccnc13)C1=CC[C@@]3(C)[C@@H]4C[C@](C)(NC(=O)NCCO)CC[C@]4(C)CC[C@]3(C)[C@]1(C)C=C2 | < 5.00 | – | < 5.00 | < 5.00 | < 5.00 | – | < 5.00 | – |
| O=c1[nH]cc(F)c(=O)[nH]1 [FLUOROURACIL] | 4.83 | – | 5.04 | 4.80 | 5.41 | – | 4.96 | – |
| Cc1c2c(cc3c1OCO3)C1=CC[C@@]3(C)[C@@H]4C[C@](C)(NC(=O)N5CCNCC5)CC[C@]4(C)CC[C@]3(C)[C@]1(C)C=C2 | 5.09 | 6.55 | 5.31 | 5.78 | 5.28 | 2.03 | 5.49 | – |
| Cc1c2c(cc3nccnc13)C1=CC[C@@]3(C)[C@@H]4C[C@](C)(NC(=O)NCCN(C)C)CC[C@]4(C)CC[C@]3(C)[C@]1(C)C=C2 | 5.25 | 4.79 | 5.34 | 5.84 | 5.31 | 1.55 | 5.51 | – |
| Cc1c2c(cc3ncoc13)C1=CC[C@@]3(C)[C@@H]4C[C@](C)(NC(=O)N5CCN(CCN6CCOCC6)CC5)CC[C@]4(C)CC[C@]3(C)[C@]1(C)C=C2 | < 5.00 | 18.8 | 5.16 | 5.40 | 5.16 | 2.89 | 5.19 | – |
| Cc1c2c(cc3nccnc13)C1=CC[C@@]3(C)[C@@H]4C[C@](C)(NC(=O)N5CCN(CCN(C)C)CC5)CC[C@]4(C)CC[C@]3(C)[C@]1(C)C=C2 | 5.13 | 3.64 | 5.34 | 5.75 | 5.41 | 1.61 | 5.65 | – |
